The values below come from ChEMBL document CHEMBL1146977, “Taxoid from the needles of the Himalayan yew Taxus wallichiana with cytotoxic and immunomodulatory activities” (Bioorg Med Chem Lett, 2006).

≈ marks a conversion by molar mass, not a printed value.

What all share (assay type): functional, cell-based
Assay [1] has as its system WRL68. Put plainly: Cytotoxicity against human WRL68 cells by MTT assay. In general terms: Formazan colour is commonly taken as a measure of viable cells.
Assay [2] has as its system KB. Put plainly: Cytotoxicity against human KB cells by MTT assay.
In assay [3] the test system is MCF7. Description: Cytotoxicity against human MCF7 cells by MTT assay.
Assay [4] concerns COLO 320DM. Description: Cytotoxicity against human Colo320DM cells by MTT assay.
For assay [5], the system named is KB. Put plainly: Cytotoxicity against human KB cells by clonogenic assay.
The test system of assay [6] is COLO 320DM. Description: Cytotoxicity against human Colo320DM cells by clonogenic assay.
The test system of assay [7] is PA-1. Description: Cytotoxicity against human PA1 cells by MTT assay.
The subject of assay [8] is MCF7. Description: Cytotoxicity against human MCF7 cells by clonogenic assay.
In assay [9] the test system is WRL68. Description: Cytotoxicity against human WRL68 cells by clonogenic assay.
For assay [10], the system named is PA-1. Description: Cytotoxicity against human PA1 cells by clonogenic assay.

Turning to `CC[C@]1(O)C[C@@H]2CN(CCc3c([nH]c4ccccc34)[C@@](C(=O)OC)(c3cc4c(cc3OC)N(C)[C@H]3[C@@](O)(C(=O)OC)[C@H](OC(C)=O)[C@]5(CC)C=CCN6CC[C@]43[C@@H]65)C2)C1` [VINBLASTINE], the IC50 in assay [1] is 1.45 µg/mL (≈ 1.79 µM); in assay [2], 0.046 µg/mL (≈ 0.0567 µM); in [3] it was 0.02 µg/mL (≈ 0.0247 µM); in assay [4] it was 0.52 µg/mL (≈ 0.641 µM); in assay [5], 0.46 µg/mL (≈ 0.567 µM); in [6] it was 1.6 µg/mL (≈ 1.97 µM). Besides, the IC50 in [7] amounted to 0.025 µg/mL (≈ 0.0308 µM); in assay [8], 0.22 µg/mL (≈ 0.271 µM); in assay [9], 2.6 µg/mL (≈ 3.21 µM); in assay [10], 1.15 µg/mL (≈ 1.42 µM).
For the compound `CC[C@]1(O)C[C@H]2CN(CCc3c([nH]c4ccccc34)[C@@](C(=O)OC)(c3cc4c(cc3OC)N(C=O)[C@H]3[C@@](O)(C(=O)OC)[C@H](OC(C)=O)[C@]5(CC)C=CCN6CC[C@]43[C@@H]65)C2)C1` [VINCRISTINE], the IC50 in assay [1] came out at 1.42 µg/mL (≈ 1.72 µM); in assay [2] it was 0.02 µg/mL (≈ 0.0242 µM); in assay [3], 0.05 µg/mL (≈ 0.0606 µM); in assay [4] it was 0.46 µg/mL (≈ 0.558 µM); in assay [5], 0.25 µg/mL (≈ 0.303 µM); in assay [6], 1.5 µg/mL (≈ 1.82 µM). The IC50 in assay [7] stood at 0.01 µg/mL (≈ 0.0121 µM); in assay [8], 0.15 µg/mL (≈ 0.182 µM); in assay [9], 8.5 µg/mL (≈ 10.3 µM); in [10] it was 1 µg/mL (≈ 1.21 µM).
For the compound `C=C1[C@H]2C[C@]3(O)C[C@H](OC(C)=O)C(C)=C([C@@H](OC(C)=O)[C@H](OC(C)=O)[C@]2(C)[C@@H](OC(C)=O)C[C@@H]1O)C3(C)C`, the IC50 worked out at 1.65 µg/mL (≈ 3.07 µM) in assay [1]; 0.04 µg/mL (≈ 0.0745 µM) in assay [2]; 0.18 µg/mL (≈ 0.335 µM) in assay [3]; 0.23 µg/mL (≈ 0.429 µM) in assay [4]; 1.23 µg/mL (≈ 2.29 µM) in assay [5]; 1.82 µg/mL (≈ 3.39 µM) in assay [6]. The IC50 came to 0.01 µg/mL (≈ 0.0186 µM) in [7], 8.42 µg/mL (≈ 15.7 µM) in assay [8], 12.8 µg/mL (≈ 23.9 µM) in assay [9] and 0.85 µg/mL (≈ 1.58 µM) in assay [10].

Usually IC50 stands for the midpoint of a concentration-inhibition curve.
